Measurements from US10996215B2, “Methods for determining drug efficacy for the treatment of diffuse large B-cell lymphoma, multiple myeloma, and myeloid cancers” (CELGENE CORPORATION, priority 2013, dated 2021).
Residues, ends and D or L forms follow the SMILES beside them. *: point of attachment. Cbz = O=C(OCc1ccccc1)*

Experiments:
[1] = system: ZFP91, Aiolos; assay: Western blot of ZFP91 and Aiolos in OCI-LY10 cells; format: cell-based; details: for levels of ZFP91 and Aiolos: 6 hrs, 100 mM thalidomide, 10 mM lenalidomide, 1 mM pomalidomide, 1 μM or 10 μM Compound A, 100 nM Compound B, FIG. 17A
Description: (§1) Cells were harvested with RIPA buffer, and proteins from cell lysates were separated by 10% sodium dodecyl sulfate polyacrylamide (SDS-PAGE) gel electrophoresis (Bio-Rad), and transferred to PVDF membranes (Invitrogen). Immunoblots were probed with antibodies recognizing Aiolos (9-9-7; Celgene), CK1α(Abcam), GSPT1 (Sigma), ZFP91 (LSBio) and β-actin (Li-Cor). Signals were detected with a Li-Cor Odyssey imager.
Immunoblots were probed with antibodies recognizing Aiolos (9-9-7; Celgene), GSPT1 (Sigma), ZFP91 (LSBio) and β-actin (Li-Cor). Signals were detected with a Li-Cor Odyssey imager.
as §1, with “OCI-LY10 cells treated with DMSO or various drugs for 6 hrs. Cells” for “Cells”, “buffer” for “buffer,”, “recognizing:” for “recognizing”
OCI-LY10 cells were then treated with DMSO or various drugs for 6 hrs. […] Cells were harvested with RIPA buffer and Proteins from cell lysates were separated by 10% sodium dodecyl sulfate polyacrylamide (SDS-PAGE) gel electrophoresis (Bio-Rad), and transferred to PVDF membranes (Invitrogen). Immunoblots were probed with antibodies recognizing: Aiolos (9-9-7; Celgene), ZFP91 (LSBio), ZNF198 (LSBio) and β-actin (Li-Cor). Signals were detected with a Li-Cor™ Odyssey imager.
OCI-LY10 cells stably transduced with shCRBN 11 were induced for 48 hrs with either 0 or 10 ng/ml of doxycycline. […] Where MLN4924 treatments were present, MLN4924 was pre-incubated for 1 hr prior to drug treatment. Cells were harvested with RIPA buffer and Proteins from cell lysates were separated by 10% sodium dodecyl sulfate polyacrylamide (SDS-PAGE) gel electrophoresis (Bio-Rad), and transferred to PVDF membranes (Invitrogen). Immunoblots were probed with antibodies recognizing: CRBN-65, Aiolos (9-9-7; Celgene), Ikaros (Millipore), ZFP91 (LSBio) and β-actin (Li-Cor). Signals were detected with a Li-Cor Odyssey imager.

[2] = system: Aiolos, Ikaros, ZFP91; assay: Western blot in myeloma, lymphoma and primary B cells; format: cell-based; details: U266, DF15, RPMI8226, OCI-LY10, WSU-DLCL2, WSU-DLCL2 Compound A resistant, primary B cells; 8 hours
Description: Multiple myeloma cells (U266, DF15, RPMI8226), diffuse large B cell lymphoma cells (OCI-LY10, WSU-DLCL2, WSU-DLCL2 Compound A resistant), and primary B cells were treated with DMSO, […] or […] for 8 hours. Cells were harvested and were treated in cell lysis buffer to generate cell lysates. Proteins from cell lysate were separated by gel electrophoresis (10% SDS-PAGE) and transferred to nitrocellulose membranes. Immunoblots were then probed with antibodies recognizing Aiolos, CRBN, Ikaros, ZFP91 (LSBio), IRF4, IRF7, Myc, and β-actin (Li-Cor).

[3] = system: Aiolos, Ikaros, ZFP91; assay: CRBN dependence of ZFP91 reduction in U266 cells, Western blot; format: cell-based; details: for destruction of Aiolos, Ikaros, and ZFP91 (CRBN dependent pathway): 6 hour; for compound-induced reduction of Aiolos, Ikaros, and ZFP91 after inhibitor pretreatment: 10 mM MLN4924 or MG132 for 1 hr, then compounds 6 hr
Description: U266 cells were transduced with inducible shRNA constructs targeting CRBN or targeting luciferase as control. Cells were grown in the presence or in the absence of 10 ng/ml Doxycycline, and in the presence or in the absence of 1 μM pomalidomide. Cells were harvested and were treated in cell lysis buffer to generate cell lysates. Proteins from cell lysate were separated by gel electrophoresis and transferred to nitrocellulose membranes. Immunoblots were then probed with antibodies recognizing Aiolos, CRBN, Ikaros, ZFP91, IRF4, IFIT1, IFIT3, P-STAT1, and β-actin (Li-Cor).
Cells were harvested, and lysates were run on 10% SDS-PAGE and immunoblotted with the appropriate antibodies.
MG132 activates c-Jun N-terminal kinase (JNK1), which initiates apoptosis. […] MLN4924 is a NAE1 inhibitor that blocks the activity of Cullin Ring Ligases (CRLs), such as CRL4^CRBN. […] Cells were harvested and lysates were run on 10% SDS-PAGE, transferred to nitrocellulose and immunoblotted with the corresponding antibodies.

[4] = system: IFN pathway; assay: effect on IFN pathway (FIG. 13); format: cell-based
[5] = system: TMD8 (ABC) or Karpas 422 (GCB) cells; assay: competition with lenalidomide for CRBN, 3H-thymidine proliferation; format: cell-based; details: TMD8 or Karpas 422; co-treatment with 10 μM lenalidomide; competition of binding to the CRBN complex
[6] = system: CSNK1A1 (CK1α), Ikaros; assay: MG-132, MLN-4924 or Compound A pre-treatment, Western analysis in HNT-34 cells; format: cell-based; details: for LEN-mediated CK1α reduction after inhibitor pretreatment: FIG. 27B
[7] = system: NF-κB activation; details: cited from earlier work

Nc1cccc2c1C(=O)N(C1CCC(=O)NC1=O)C2=O (stereo not shown) [pomalidomide]
levels of ZFP91 and Aiolos ([1]; OCI-LY10): reduced | levels of Aiolos, Ikaros, and ZFP91 [2]: reduced | pomalidomide induced reductions of Aiolos, Ikaros, and ZFP91 when CRBN knocked down by shRNA ([3]; 1 μM pomalidomide, 10 ng/ml Doxycycline): blocked | destruction of Aiolos, Ikaros, and ZFP91 (CRBN dependent pathway) [3]: induced | IFIT1, IFIT3, DDX58, XAF1, IFIH1, and OAS3 protein expression ([4]; FIG. 13A): upregulates | DDX58, IFI27, IFIT1, IFIT3, DDX58, and XAF1 gene expression ([4]; FIG. 13B): upregulates | ISG15 and OAS3 gene expression ([4]; FIG. 13C): upregulates | IRF changes ([4]; FIG. 13E): induces | IFIT1 and IFIT3 protein expression ([4]; FIG. 13F): upregulates | IKKE protein level ([4]; FIG. 13F): reduces | TBK1 phosphorylation (TBK1-PO4) ([4]; FIG. 13F): upregulates | levels of STAT or phosphorylated STAT ([4]; FIG. 13G): induces changes

Cc1ccc(NC(=O)NCc2ccc3c(c2)CN(C2CCC(=O)NC2=O)C3=O)cc1Cl (stereo not shown) [Compound C, 1-(3-chloro-4-methylphenyl)-3-((2-(2,6-dioxopiperidin-3-yl)-1-oxoisoindolin-5-yl)methyl)urea]
anti-proliferative effects on co-treatment with lenalidomide [5]: blocks anti-proliferative effects of Compound C

NS(=O)(=O)OC[C@@H]1C[C@@H](n2ccc3c(N[C@H]4CCc5ccccc54)ncnc32)C[C@@H]1O [MLN4924]
level of both Aiolos and ZFP91 in drug-treated cells after MLN-4924 pre-treatment ([1]; OCI-LY10, 10 μM MLN-4924 1 hour prior to drug, FIG. 17C): restored | Aiolos and ZFP91 degradation in response to Compound A ([1]; OCI-LY10, 10 μM MLN-4924 pretreatment 1 hour, FIG. 14B): blocked | level of both Aiolos and ZFP91 in drug-treated cells after MLN-4924 pre-treatment ([1]; OCI-LY10 shCRBN 11, lenalidomide or Compound A 6 hours, MLN4924 1 hr pre-incubation, FIG. 17D): restored | compound-induced reduction of Aiolos, Ikaros, and ZFP91 after inhibitor pretreatment [3]: blocked | LEN-mediated CK1α reduction after inhibitor pretreatment [6]: abrogated

O=C1CCC(N2Cc3c(OCc4ccc(CN5CCOCC5)cc4)cccc3C2=O)C(=O)N1 (stereo not shown) [Compound B, 3-[4-(4-Morpholin-4-ylmethyl-benzyloxy)-1-oxo-1,3-dihydro-isoindol-2-yl]-piperidine-2,6-dione]
levels of ZFP91 and Aiolos ([1]; OCI-LY10): reduced

CC(C)C[C@@H](C=O)NC(=O)[C@H](CC(C)C)NC(=O)[C@H](CC(C)C)NC(=O)OCc1ccccc1 [MG132] (Cbz-Leu-Leu-Leu-aldehyde)
compound-induced reduction of Aiolos, Ikaros, and ZFP91 after inhibitor pretreatment [3]: blocked | IC50 [7]: 3 µM | CSNK1A1 protein levels in the presence of lenalidomide ([6]; 3 μM or 10 μM MG-132 pre-treatment 30 min): stabilized | LEN-mediated CK1α reduction after inhibitor pretreatment [6]: abrogated

O=C1CCC(N2C(=O)c3ccccc3C2=O)C(=O)N1 (stereo not shown) [thalidomide]
levels of ZFP91 and Aiolos ([1]; OCI-LY10): reduced | destruction of Aiolos, Ikaros, and ZFP91 (CRBN dependent pathway) [3]: induced
